In patent US20230233674A1 (priority 2022, published 2023):

Test system: Influenza A/Hong Kong/2369/2009 (H1N1)
Settings: mouse, in vivo

CCOC(=O)C1=C[C@@H](OC(CC)CC)[C@H](NC(C)=O)[C@@H](N)C1 [Oseltamivir]
mean peak weight loss: −32%
mice that succumbed to the disease: 90%
treatment effect: no significant effect
